Laboratory results from publication PMC6973020, “Quinoline‐Conjugated Ruthenacarboranes: Toward Hybrid Drugs with a Dual Mode of Action” (Chemmedchem, 2019).

Columns and labels:
Type in all cases: cell-based, human
MCF‐7 cells = experiment: Sideward Scatter (SSC, cell granularity), MCF‐7; conditions: MCF‐7, 20 μM of 4, 72 h
Procedure: (§1) Flow cytometry. For gaining better insights into the mechanisms of action of the ruthenium complexes, MCF‐7 and LN229 cells incubated with an IC50 dose of 3 or 4, were analyzed via flow cytometry. Several staining protocols were carried out in parallel, in independent experiments: i) AnnV/PI for the detection of apoptotic cell death, ii) AO for the detection of acidic vacuoles, iii) ApoStat for checking caspase activation, iv) CFSE for detecting interference with cellular proliferation, and v) DAPI for the detection of morphological signs of apoptosis. Untreated cells or cells treated only with BSA (control) were also measured, as reference for BSA‐free and BSA‐containing drug formulations, respectively. […] Channels FL1 (green emission), FL2 (orange emission) and/or FL3 (dark red emission) were used for fluorescence detection, according to the specific staining agent. Sideward Scatter (SSC) for MCF‐7 cells treated with 4 or BSA−4 was also analyzed, with respect to the control, for detection of shifts of cell granularity. […]
Figure S16. […] Respective controls, i.e. untreated cells or cells treated only with BSA, were also measured for comparison. […]
Figure S17. […] Respective controls, i.e. untreated cells or cells treated only with BSA, were also measured for comparison.
Sideward Scatter is proportional to cell granularity and was determined via flow cytometry. […]

LN229 cells [1] = experiment: AnnV/PI double staining, flow cytometry, LN229; conditions: LN229, 40 μM, 72 h
Procedure: as §1
(§2) FCS, 2 mM L‐glutamine, 0.01% sodium pyruvate and antibiotics, at 37 °C in a humidified atmosphere with 5% CO2. […] Cells were counted and seeded in 96‐well plates and incubated overnight, as described above. […]
(§3) Staining Protocols for Flow Cytometric Analysis. […] Finally, cells were washed in PBS, resuspended in PBS (or AnnV‐binding buffer for AnnV/PI), and analysed. […]

LN229 cells [2] = experiment: DAPI staining, fluorescence microscopy, LN229; conditions: LN229, 40 μM, 72 h
Procedure: as §1, §2, §3

For “closo ‐[3‐(η^6‐p‐Cymene)‐1‐(quinolin‐8‐yl‐acetate)‐3,1,2‐RuC2B9H10] [Compound 4]”, the “cell granularity (SSC)” value (MCF‐7 cells) was “enhanced granularity”, the “early apoptotic (Ann+/PI−) cells” value (LN229 cells [1]; control 0.9 %) was 9.0% and the “late apoptotic (Ann+/PI+) cells” value (LN229 cells [1]; control 7.4 %) was 35%. The “morphological features of apoptosis (DAPI)” value (LN229 cells [2]) was “several typical morphological features of apoptosis”.
